Source: patent US20180110754A1, “CENICRIVIROC FOR THE TREATMENT OF FIBROSIS” (Tobira Therapeutics, Inc., priority 2015, published 2018)

Columns and labels:
[1] = test system: MCP-1, sCD14, hs-CRP, IL-6, D-dimer, fibrinogen; test: Study 202: biomarkers of inflammation and immune function; format: in vivo, human; settings: CVC 200 mg
Experimental: As an exploratory analysis, levels of inflammation biomarkers MCP-1, sCD14, high sensitivity C-reactive protein [hs-CRP], interleukin-6 [IL-6], D-dimer, and fibrinogen) were measured. Baseline values and changes from baseline at Week 24 and Week 48 of MCP-1, sCD14, hs-CRP, IL-6, D-dimer, and fibrinogen are summarized in Table 25.
The sCD14 samples were originally analyzed in 2 separate batches: Batch 1 included samples leading up to the Week 24 primary analysis and Batch 2 included Week 32 and Week 48 (end of study) samples. A repeat analysis of archived samples all analyzed in one batch was conducted for consistency in analysis across time points. To control for the effects of covariates, a linear mixed-model repeated-measures analysis was conducted on the changes from baseline in sCD14 (analysis dated September 2013).

[2] = Study 202: ECG abnormalities and vital signs; format: in vivo, human; settings: for HR Abnormally high, n subjects / HR Abnormally low, n subjects / PR Abnormally high, n subjects / QRS Abnormally high, n subjects / QRS Abnormally low, n subjects / QTcB interval Borderline (450-480 ms), n subjects / QTcB interval Increase by >30-60 ms, n subjects / QTcB interval Increase by >60 ms, n subjects / QTcB interval Pathologically prolonged, n subjects / QTcB interval Prolonged, n subjects / QTcF interval Borderline (450-480 ms), n subjects / QTcF interval Increase by >30-60 ms, n subjects / QTcF interval Increase by >60 ms, n subjects / QTcF interval Pathologically prolonged, n subjects / QTcF interval Prolonged, n subjects: through Week 48
[3] = All CVC (N = 115), EFV (N = 28)

## CCCCOCCOc1ccc(-c2ccc3c(c2)/C=C(/C(=O)Nc2ccc([S@@+]([O-])Cc4cncn4CCC)cc2)CCCN3CC(C)C)cc1 [CVC, (S)-8-[4-(2-Butoxyethoxy)phenyl]-1-isobutyl-N-(4-{[(1-propyl-1H-imidazol-5-yl)methyl]sulfinyl}phenyl)-1,2,3,4-tetrahydro-1-benzazocine-5-carboxamide]
[1]
  Fibrinogen change from baseline at Week 48, mean: -10 mg/dL
  Fibrinogen change from baseline at Week 48, median: -13 mg/dL
  IL-6 baseline value, mean: 3.34 pg/mL
  IL-6 baseline value, median: 1.90 pg/mL
  IL-6 change from baseline at Week 24, mean: 0.81 pg/mL
  IL-6 change from baseline at Week 24, median: 0.00 pg/mL
  IL-6 change from baseline at Week 48, mean: -0.04 pg/mL
  IL-6 change from baseline at Week 48, median: 0.00 pg/mL
  MCP-1 baseline value, mean: 153 pg/mL
  MCP-1 baseline value, median: 137 pg/mL
  MCP-1 change from baseline at Week 24, mean: 753 pg/mL
  MCP-1 change from baseline at Week 24, median: 695 pg/mL
  MCP-1 change from baseline at Week 48, mean: 900 pg/mL
  MCP-1 change from baseline at Week 48, median: 756 pg/mL
  hs-CRP baseline value, mean: 0.46 mg/dL
  hs-CRP baseline value, median: 0.15 mg/dL
  hs-CRP change from baseline at Week 24, mean: -0.04 mg/dL
  hs-CRP change from baseline at Week 24, median: -0.04 mg/dL
  hs-CRP change from baseline at Week 48, mean: -0.18 mg/dL
  hs-CRP change from baseline at Week 48, median: -0.04 mg/dL
  sCD14 (original values) baseline value, mean: 1.88e+06 pg/mL
  sCD14 (original values) baseline value, median: 1.86e+06 pg/mL
  sCD14 (original values) change from baseline at Week 12, mean: -230000 pg/mL
  sCD14 (original values) change from baseline at Week 12, median: -210000 pg/mL
  sCD14 (original values) change from baseline at Week 24, mean: -230000 pg/mL
  sCD14 (original values) change from baseline at Week 24, median: -190000 pg/mL
  sCD14 (original values) change from baseline at Week 32, mean: -20000 pg/mL
  sCD14 (original values) change from baseline at Week 32, median: -20000 pg/mL
  sCD14 (original values) change from baseline at Week 48, mean: -40000 pg/mL
  sCD14 (original values) change from baseline at Week 48, median: -40000 pg/mL
[2]; [3]
  HR Abnormally high, n subjects: 0
  HR Abnormally low, n subjects: 0
  PR Abnormally high, n subjects: 3
  QRS Abnormally high, n subjects: 1
  QRS Abnormally low, n subjects: 0
  QTcB interval Borderline (450-480 ms), n subjects: 6
  QTcB interval Increase by >30-60 ms, n subjects: 9
  QTcB interval Increase by >60 ms, n subjects: 1
  QTcB interval Pathologically prolonged, n subjects: 0
  QTcB interval Prolonged, n subjects: 0
  QTcF interval Borderline (450-480 ms), n subjects: 2
  QTcF interval Increase by >30-60 ms, n subjects: 7
  QTcF interval Increase by >60 ms, n subjects: 1
  QTcF interval Pathologically prolonged, n subjects: 0
  QTcF interval Prolonged, n subjects: 0
[2]; CVC 100 mg (N = 58)
  HR Abnormally high, n subjects: 0
  HR Abnormally low, n subjects: 0
  PR Abnormally high, n subjects: 2
  QRS Abnormally high, n subjects: 1
  QRS Abnormally low, n subjects: 0
  QTcB interval Borderline (450-480 ms), n subjects: 4
  QTcB interval Increase by >30-60 ms, n subjects: 6
  QTcB interval Increase by >60 ms, n subjects: 1
  QTcB interval Pathologically prolonged, n subjects: 0
  QTcB interval Prolonged, n subjects: 0
  QTcF interval Borderline (450-480 ms), n subjects: 1
  QTcF interval Increase by >30-60 ms, n subjects: 4
  QTcF interval Increase by >60 ms, n subjects: 1
  QTcF interval Pathologically prolonged, n subjects: 0
  QTcF interval Prolonged, n subjects: 0
[2]; CVC 100 mg arm
  Subjects with QTc increase of >60 msec: 1 subject
[2]; CVC 200 mg (N = 57)
  HR Abnormally high, n subjects: 0
  HR Abnormally low, n subjects: 0
  PR Abnormally high, n subjects: 1 (2%)
  QRS Abnormally high, n subjects: 0
  QRS Abnormally low, n subjects: 0
  QTcB interval Borderline (450-480 ms), n subjects: 2 (4%)
  QTcB interval Increase by >30-60 ms, n subjects: 3 (6%)
  QTcB interval Increase by >60 ms, n subjects: 0
  QTcB interval Pathologically prolonged, n subjects: 0
  QTcB interval Prolonged, n subjects: 0
  QTcF interval Borderline (450-480 ms), n subjects: 1 (2%)
  QTcF interval Increase by >30-60 ms, n subjects: 3 (6%)
  QTcF interval Increase by >60 ms, n subjects: 0
  QTcF interval Pathologically prolonged, n subjects: 0
  QTcF interval Prolonged, n subjects: 0
